# US20120122919A1, “PHARMACEUTICAL COMPOSITION COMBINING TENATOPRAZOLE AND A HISTAMINE H2-RECEPTOR ANTAGONIST” (priority 2002, published 2012)
# Experiment: phase I pharmacokinetic study of tenatoprazole, oral single dose and daily dose for 7 days
# Type: in vivo, Caucasian individuals
# Description: The doses tested were 10, 20, 40 and 80 mg of tenatoprazole.
smiles,measurement,setting,value
"COc1ccc2[nH]c([S+]([O-])Cc3ncc(C)c(OC)c3C)nc2n1 (stereo not drawn) [tenatoprazole, 5-methoxy-2-[[(4-methoxy-3,5-dimethyl-2-pyridyl)methyl]sulfinyl]imidazo[4,5-b]pyridine]",half-life at 7 days,"human, plasma, after administration for seven days, depending on the dose (10-80 mg), read-out: mean elimination half-lives",5 to 9.2 h
same,T½ elimination half-life,"repeated dose (7 days), 40 mg",9 h
same,T½ elimination half-life,"single dose, 80 mg",7 h
